Molecules are shown by their SMILES. Bounds are passed on as bounds.

Results on eight compounds are retold here after patent US20260138961A1, “MODULATORS OF MITOCHONDRIAL DNA REPLICATION” (Pretzel Therapeutics, Inc., priority 2022, published 2026).

For the first experiment, the target named is T1, wild type human POLγ (POLγA:WT) (Homo sapiens, UniProt P54098).
T1 sequence (P54098 1-1239): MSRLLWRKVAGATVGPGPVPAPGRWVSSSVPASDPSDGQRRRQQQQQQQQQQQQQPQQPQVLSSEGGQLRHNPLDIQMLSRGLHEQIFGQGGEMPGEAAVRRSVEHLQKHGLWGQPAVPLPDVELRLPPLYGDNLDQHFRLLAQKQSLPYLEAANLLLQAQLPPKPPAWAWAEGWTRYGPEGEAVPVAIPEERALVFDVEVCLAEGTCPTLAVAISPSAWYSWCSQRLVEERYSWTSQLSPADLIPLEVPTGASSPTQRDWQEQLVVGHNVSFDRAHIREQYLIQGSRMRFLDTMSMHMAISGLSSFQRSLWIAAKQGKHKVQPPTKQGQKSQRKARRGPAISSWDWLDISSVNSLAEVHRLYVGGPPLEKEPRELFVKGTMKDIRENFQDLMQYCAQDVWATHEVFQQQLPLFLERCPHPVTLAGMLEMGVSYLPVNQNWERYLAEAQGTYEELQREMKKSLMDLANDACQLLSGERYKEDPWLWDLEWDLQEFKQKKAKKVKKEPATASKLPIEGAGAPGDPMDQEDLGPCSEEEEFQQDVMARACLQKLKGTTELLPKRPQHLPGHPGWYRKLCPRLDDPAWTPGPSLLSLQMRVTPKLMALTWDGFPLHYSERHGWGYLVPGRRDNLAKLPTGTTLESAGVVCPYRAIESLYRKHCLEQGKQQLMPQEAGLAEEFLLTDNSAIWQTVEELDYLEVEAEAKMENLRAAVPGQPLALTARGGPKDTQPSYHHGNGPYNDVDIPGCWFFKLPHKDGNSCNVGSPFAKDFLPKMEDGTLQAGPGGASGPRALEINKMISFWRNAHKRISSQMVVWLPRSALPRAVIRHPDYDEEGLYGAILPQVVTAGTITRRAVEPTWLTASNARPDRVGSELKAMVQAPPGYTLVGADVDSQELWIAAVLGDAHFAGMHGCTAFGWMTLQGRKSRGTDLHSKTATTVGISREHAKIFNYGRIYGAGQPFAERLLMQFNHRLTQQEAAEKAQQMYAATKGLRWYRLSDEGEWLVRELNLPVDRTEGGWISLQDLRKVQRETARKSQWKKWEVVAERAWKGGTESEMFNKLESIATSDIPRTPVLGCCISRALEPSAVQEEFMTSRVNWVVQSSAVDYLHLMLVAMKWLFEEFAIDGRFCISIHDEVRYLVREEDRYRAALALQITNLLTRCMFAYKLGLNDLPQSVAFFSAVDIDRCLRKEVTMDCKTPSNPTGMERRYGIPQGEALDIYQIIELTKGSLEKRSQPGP
T1 sequence (Q9UHN1 1-485 partner): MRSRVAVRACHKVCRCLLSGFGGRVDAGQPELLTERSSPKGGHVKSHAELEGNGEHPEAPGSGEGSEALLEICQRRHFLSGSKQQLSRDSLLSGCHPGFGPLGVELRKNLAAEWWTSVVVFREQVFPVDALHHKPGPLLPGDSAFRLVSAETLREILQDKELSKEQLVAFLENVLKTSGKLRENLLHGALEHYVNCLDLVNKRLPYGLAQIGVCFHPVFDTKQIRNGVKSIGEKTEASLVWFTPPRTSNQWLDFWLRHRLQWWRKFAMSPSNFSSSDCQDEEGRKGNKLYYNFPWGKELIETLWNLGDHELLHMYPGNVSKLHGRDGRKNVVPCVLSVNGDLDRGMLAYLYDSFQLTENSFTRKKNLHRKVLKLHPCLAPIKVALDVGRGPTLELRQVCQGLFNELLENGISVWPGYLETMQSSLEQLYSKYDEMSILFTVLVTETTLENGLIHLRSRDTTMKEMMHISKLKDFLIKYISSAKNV
The experiment is described as follows: DNA polymerization assay, wild type POLγ. The settings on record: 0.1 μM dNTP, read-out: WT AC50 (μM) at 0.1 μM. It counts as biochemical.
As to `Cc1csc(-c2ccccc2NS(=O)(=O)c2cc(C)c(Cl)cc2C)n1` [Example 80, 4-chloro-2,5-dimethyl-N-(2-(4-methylthiazol-2-yl)phenyl)benzenesulfonamide], the AC50 (as a rule, the concentration giving half of the maximal activity seen) was more than 100 µM.

Staying with this experiment, now noted: 100 μM dNTP, read-out: WT AC50 (μM) at 100 μM.
Consider `Cc1cc(S(=O)(=O)Nc2ccc3ccn(C)c3c2)c(C)cc1Cl` [Example 72, 4-chloro-2,5-dimethyl-N-(1-methyl-1H-indol-6-yl)benzenesulfonamide], for which the concentration at half-maximal activity (AC50) was determined as 4 µM.

In the case of `Cc1nc2ccc(NS(=O)(=O)c3cc(C)c(Cl)cc3C)cc2s1` [Example 73, 4-chloro-2,5-dimethyl-N-(2-methylbenzo[d]thiazol-6-yl)benzenesulfonamide], the AC50 was found to be 2 µM.

For `Cc1cc(S(=O)(=O)Nc2cccc(-c3ncc(C4CC4)s3)c2)c(C)cc1Cl` [Example 76, 4-chloro-N-(3-(5-cyclopropylthiazol-2-yl)phenyl)-2,5-dimethylbenzenesulfonamide], the AC50 was found to be 0.4 µM.

For the compound `Cc1cc(S(=O)(=O)Nc2csc(-c3ccccc3)n2)c(C)cc1Cl` [Example 81, 4-chloro-2,5-dimethyl-N-(2-phenylthiazol-4-yl)benzenesulfonamide], the AC50 was 0.2 µM.

On to `Cc1cnc(-c2ccc(NS(=O)(=O)c3cc(C)c(Cl)cc3C)cc2)s1` [Example 83, 4-chloro-2,5-dimethyl-N-(4-(5-methylthiazol-2-yl)phenyl)benzenesulfonamide], for which the half-maximal activity concentration (AC50) worked out at 6 µM.

Take `Cc1cc(S(=O)(=O)Nc2cccc(-c3ncc(CN(C)C)s3)c2)c(C)cc1Cl` [Example 87, 4-chloro-N-(3-(5-((dimethylamino)methyl)thiazol-2-yl)phenyl)-2,5-dimethylbenzenesulfonamide]: the AC50 turned out to be 4 µM.

In the case of `Cc1cc(S(=O)(=O)Nc2cccc(-c3ncc(CO)s3)c2)c(C)cc1Cl` [Example 89, 4-chloro-N-(3-(5-(hydroxymethyl)thiazol-2-yl)phenyl)-2,5-dimethylbenzenesulfonamide], the concentration at half-maximal activity (AC50) was found to be 0.3 µM.
